Laboratory results published in patent EP0714662A1, “ANTIALLERGIC AGENT” (MEIJI MILK PRODUCTS COMPANY LIMITED, priority 1993, dated 1995).
Ends that are not written are not given here. Peptide text beside a SMILES is read from it.

Legend:
[1] = tested on: serum IgE from 15 patients suffering from mite rhinallergosis; assay: Enzyme antibody assay: binding of solid phase Der p II overlapping peptides to patients' serum IgE; parameters: species or system human; conditions: serum from each of 15 patients
Protocol: The complete primary structure of the amino acid sequence of a Der p II protein was determined after cDNA was isolated therefrom by Chua et al. (Int. Arch. Allergy Appl. Immunol. 91: 118-123, 1990). Based on the amino acid sequence, peptides were synthesized on a solid phase using a multipin system (manufactured by Chiron) and coupling reagents, Fmoc-amino acid and DCC (dicyclohexyl carbodiimide) (Geysen, H.M. et al., Proc. Natl. Acad. Sci. USA. 81:3998-4002, 1984). Sixty-one kinds of peptides were synthesized, the first peptide comprising the first through ninth amino acids of the N-terminal of Der p II, the second peptide comprising the third through eleventh amino acids of the N-terminal, and the third through 61st peptides being prepared in an analogous manner.
The RAST (radio-allergosorbent test, Pharmacia) values as determined using antigens from two mite species, Dermatophagoides pteronyssinus (Der p) and Dermatophagoides farina (D f), were class 4. Each of the above-mentioned 61 synthesized peptides and 100 µl of each patient's serum were placed in a 96-well plate and reacted overnight at room temperature. Synthesized peptides in a solid phase were washed three times to remove the patient's serum using a washing solution of 0.05% Tween 20/0.15 M NaCl/Tris-HCl (pH 7.5). 100 µl of galactosidase-labelled anti-human IgE antibodies (Pharmacia) were diluted to 40-fold using a 1:9 diluted Block-ace (product of Dainippon Seiyaku K.K.). The diluted solution was added to a 96-well plate, each synthesized solid phase peptide was also added, and reaction, was allowed to proceed overnight at room temperature. The synthesized solid phase peptide was washed with the same washing solution five times. Thereafter, to a 96-well black plate (manufactured by Dainippon Seiyaku K.K.), were added 200 µl of a solution of 0.1 mM 4-methylumbelliferyl-β-D-galactopyranoside in 0.1% bovine serum albumin/0.1 M NaCl/1 mM MgCl₂/0.1% sodium azide/10 mM phosphate buffer (pH 7.0). Subsequently, the synthesized solid phase peptide was added and reacted for 2 hours at 37°C. After completion of reaction, 100 µl of a reaction terminating solution (0.1 M glycin/NaOH, pH 10.3) were added to each well, and absorbance was measured using a fluorospectrophotometer for 96-well plates (Manufactured by Flow). This reaction was studied for each of 15 patients.

[2] = tested on: serum IgE of cryptomeria pollinosis patients; assay: Enzyme antibody assay: binding of solid phase Cry j II overlapping peptides to patients' serum IgE; parameters: species or system human
From the text: Presently, however, the C-terminal amino acids are unknown. Therefore, overlapping peptides were synthesized on a solid phase using an Fmoc-amino acid and multipin system (manufactured by Chiron) so as to cover all the proteins consisting of 460 amino acid residues (Sequence No. 1) other than the N-terminal moiety. The first peptide comprises the first through ninth amino acids in the N-terminal moiety of a Cry j II protein. The second peptide comprises the third through eleventh amino acids in the N-terminal moiety.
Subsequently, using a washing solution of 0.05% Tween 20/0.15 M NaCl/Tris-HCl (pH 7.5), synthesized solid phase peptides were washed three times to remove the patient's serum. Using a 1:9 diluted Block-ace (product of Dainippon Seiyaku K.K.), 100 µl of galactosidase-labelled anti-human IgE antibodies (Pharmacia) were diluted to 40-fold. The diluted solution was added to a 96-well plate, and then each synthesized solid phase peptide was also added. Reaction was allowed to proceed overnight at room temperature. The synthesized solid phase peptide was washed with the same washing solution five times. Thereafter, 200 µl of a solution of 0.1 mM 4-methylumbelliferyl-β-D-galactopyranoside in 0.1% bovine serum albumin/0.1 M NaCl/1 mM MgCl₂/0.1% sodium azide/10 mM phosphate buffer (pH 7.0) were added to a 96-well black plate (manufactured by Dainippon Seiyaku K.K.). Subsequently, the synthesized solid phase peptide was added and reacted for 2 hours at 37°C.

basophils of a patient = assay: Histamine release inhibition test with peptide D, blood of egg allergy patients; type: cell-based, human
Protocol: The histamine release inhibition test was performed using a histamine kit "Eiken" manufactured by Eiken Kagaku K.K. Briefly, heparinized peripheral blood was collected from each patient, and the blood was diluted to a 1:1 ratio using a buffer for release tests. Equivalent amounts of a diluted peptide D (which had been diluted to double the density of an inhibitory concentration using a buffer for release tests) and a diluted blood from a patient (which had been diluted to a 1:1 ratio) were mixed and allowed to react overnight at 4°C. Subsequently, fifty µl of peptide B or OVA diluted with a buffer for release was mixed with 100 µl of the patient's blood with which peptide D was reacted. […] After the histamine tubes were incubated for 16 to 24 hours, the solution was drawn off using an aspirator, and measured using a gamma scintillation counter. The amount of total histamine was determined using a supernatant sample obtained by adding 1 ml of purified water to 50 µl of whole blood, freezing and thawing, then centrifugally separating. […] The ratio of the difference with respect to the total amount of histamine was calculated and taken as a histamine release ratio. Inhibition ratio (%) was calculated by the following equation: %Inhibition = {1-(histamine release ratio in the presence of an inhibitory peptide)/(histamine release ratio in the absence of an inhibitory peptide)} x 100 [formula] […]

Q: With SENVVVTVK [synthesized peptide No. 51] as the molecule, how does the “binding reactions with IgE antibodies” value [1] read?
A: Its value is “exhibited binding reactions with IgE antibodies”.

Q: For QCKWVNGRE, which “reaction with serum IgE of cryptomeria pollinosis patients” value (“reaction with serum IgE” below) [2] is on record?
A: The value was “reacted serum IgE of cryptomeria pollinosis patients”.

Q: For IATHAKIRD [synthesized peptide No. 61], which “binding reactions with IgE antibodies” value [1] is on record?
A: The value was “exhibited binding reactions with IgE antibodies”.

Q: EFRADHPFLF [peptide D] was tested. Which “suppression ratio of histamine release caused by untreated OVA” value (basophils of a patient; peptide D 1.4 mg/ml) did it give?
A: Its value is 93%.

Q: And the “suppression of histamine release caused by stimulant peptide B” value (basophils of a patient; peptide D at a concentration of not less than 1.4 mg/ml)?
A: The value was “at least 85%”.

Q: Which “reaction with serum IgE” value [2] does the source give for `C[C@@H](O)[C@H](NC(=O)[C@H](CS)NC(=O)[C@H](CC(N)=O)NC(=O)[C@@H]1CCCN1)C(=O)N[C@@H](CC(N)=O)C(=O)N[C@@H](CCCCN)C(=O)N[C@@H](CS)C(=O)N[C@@H](Cc1c[nH]cn1)C(=O)NCC(=O)O` [Pro-Asn-Cys-Thr-Asn-Lys-Cys-His-Gly] (H-PNCTNKCHG-OH) here?
A: Its value is “reacted serum IgE of cryptomeria pollinosis patients”.

Q: For “KWVNGREIC [Lys-Trp-Val-Asn-Gly-Arg-Glu-Ile-Cys]”, which “reaction with serum IgE” value [2] is on record?
A: Its value is “reacted serum IgE of cryptomeria pollinosis patients”.

Q: How did the “binding reactions with IgE antibodies” value [1] turn out when SIDGLEVDV [synthesized peptide No. 29] was run?
A: Its value is “exhibited binding reactions with IgE antibodies”.

Q: How did the “binding reactions with IgE antibodies” value [1] turn out when PKSENVVVT [synthesized peptide No. 50] was run?
A: The value was “exhibited binding reactions with IgE antibodies”.

Q: How did the “binding reactions with IgE antibodies” value [1] turn out when NVPKIAPKS [synthesized peptide No. 47] was run?
A: The value was “exhibited binding reactions with IgE antibodies”.

Q: For `C[C@H](NC(=O)[C@H](CO)NC(=O)[C@H](C)NC(=O)[C@H](CO)NC(=O)[C@@H](NC(=O)[C@@H](N)CS)[C@@H](C)O)C(=O)N[C@@H](CS)C(=O)N[C@@H](CCC(N)=O)C(=O)N[C@@H](CC(N)=O)C(=O)O` [Cys-Thr-Ser-Ala-Ser-Ala-Cys-Gln-Asn] (H-CTSASACQN-OH), which “reaction with serum IgE” value [2] is on record?
A: Its value is “reacted serum IgE of cryptomeria pollinosis patients”.

Q: How did the “binding reactions with IgE antibodies” value [1] turn out when KCPLVKGQQ [synthesized peptide No. 39] was run?
A: The value was “exhibited binding reactions with IgE antibodies”.

Q: How did the “reaction with serum IgE” value [2] turn out when “SASACQNQR [Ser-Ala-Ser-Ala-Cys-Gln-Asn-Gln-Arg]” was run?
A: Its value is “reacted serum IgE of cryptomeria pollinosis patients”.

Q: With “NLFFNGPCQ [Asn-Leu-Phe-Phe-Asn-Gly-Pro-Cys-Gln]” as the molecule, how does the “reaction with serum IgE” value [2] read?
A: The value was “reacted serum IgE of cryptomeria pollinosis patients”.

Q: With ANQNTKTAK [synthesized peptide No. 22] as the molecule, how does the “binding reactions with IgE antibodies” value [1] read?
A: Its value is “exhibited binding reactions with IgE antibodies”.

Q: KIEIKASID [synthesized peptide No. 26] was tested. Which “binding reactions with IgE antibodies” value [1] did it give?
A: Its value is “exhibited binding reactions with IgE antibodies”.

Q: Which “binding reactions with IgE antibodies” value [1] does the source give for VVTVKVMGD [synthesized peptide No. 53] here?
A: The value was “exhibited binding reactions with IgE antibodies”.

Q: How did the “binding reactions with IgE antibodies” value [1] turn out when FQLEAVFEA [synthesized peptide No. 18] was run?
A: Its value is “exhibited binding reactions with IgE antibodies”.
